{"source": "patent US20240058371A1", "about": "“MOLECULE FOR INDUCING SPONTANEOUS CALCIFICATION OF TUMOR CELLS AND USE THEREOF” (ZHEJIANG UNIVERSITY, priority 2020, published 2024)", "key": {"[1]": {"tested_on": "Beas-2b human lung epithelial cells, and human umbilical vein endothelial cells (HUVECs)", "assay": "Flow cytometry of cell surface-bound FITC-modified targeting peptide, normal cells", "format": "binding", "settings": "100 μg/mL FITC-modified peptide, 30 min", "procedure": "(§1) The free amino groups of aspartic acid residues in the targeting peptide were reacted with fluorescein isothiocyanate (FITC) in phosphate-buffered saline (PBS) solution for 12 hours, then dialyzed in dialysis bags for 5 days and lyophilized to obtain FITC-modified targeting peptide molecules."}, "[2]": {"tested_on": "lung epithelial cells", "assay": "Electron microscopy / EDX elemental scan of cell surface calcification, lung epithelial cells", "format": "cell-based, human", "from_the_text": "(§2) Subsequently, they were subjected to electron microscopy to detect calcification on the cell surface."}, "[3]": {"tested_on": "pulmonary nodules", "assay": "Ultrasound and CT imaging, mouse model of pulmonary nodules", "format": "in vivo, C57 mice", "settings": "200 mg/kg intravenous, 4 weeks after model establishment", "procedure": "(§3) Fifty micrograms of SodA peptide ([…]) and 0.25 mL of incomplete Freund's adjuvant were mixed and subcutaneously injected into the backs of C57 mice. Two weeks later, 50 μg of SodA peptide and 6000 agarose 4B beads dissolved in 0.2 mL PBS were covalently coupled and injected into the tail vein of the same C57 mice to construct a mouse model of pulmonary nodules. Additionally, 3×10^6 A549-Luci cells were injected into the tail vein of nude mice to construct a mouse model of pulmonary metastatic tumors. Some mice underwent intravenous injection of the targeting peptide (200 mg/kg) to induce calcification; simultaneous ultrasound and CT scans of normal lung cancer, calcified lung cancer, and pulmonary nodules were performed at 4 weeks after model establishment."}, "[4]": {"tested_on": "human non-small cell lung cancer cells (lines A549, H460, and H1299)", "assay": "CCK8 assay, lung cancer cells", "format": "cell-based", "parameters": "dose or concentration left out as unconfirmed", "settings": "48 hours", "procedure": "CCK8 assays were performed to determine the killing effect of targeting peptide-induced calcification of lung cancer cells."}, "[5]": {"tested_on": "A549-Luci cells", "assay": "Mouse model of metastatic lung tumors, small animal in vivo imaging", "parameters": "species or system nude mice", "settings": "200 mg/kg tail vein, compared with the control group", "procedure": "To construct a mouse model of metastatic lung tumors, 3×10^6 A549-Luci cells\nwere injected into the tail vein of nude mice, followed by injection of targeting peptide (CiP; 200 mg/kg) through the tail vein. Control mice were injected with PBS, 4 mg/kg adriamycin (Dox), and a control peptide ([…], targeting peptide, TP) at the same concentration as the CiP peptide; this experiment investigated whether CiP targeting peptide-induced calcification of A549 cells could inhibit lung cancer growth and metastasis. Tumorigenesis was monitored using a small animal in vivo imaging system.\nThe above experiments were repeated using the E6[…], E10[…], E16[…], and E30[…] peptides."}, "[6]": {"tested_on": "Beas-2b human lung epithelial cells", "assay": "CCK8 assay, normal lung epithelial cells", "format": "cell-based", "parameters": "dose or concentration left out as unconfirmed", "settings": "48 hours"}, "[7]": {"tested_on": "A549-Luci cells", "assay": "Ultrasound and CT imaging of calcified lung cancer, mouse model of pulmonary metastatic tumors", "format": "in vivo, nude mice", "settings": "200 mg/kg intravenous, 4 weeks after model establishment", "procedure": "as §3"}, "[8]": {"tested_on": "A549 human non-small cell lung cancer cells", "assay": "Electron microscopy / EDX elemental scan of cell surface calcification, lung cancer cells", "format": "cell-based", "settings": "1 mg/mL, 48 hours, Ca2+ up to 2.75 mM, phosphate up to 1.61 mM", "from_the_text": "as §2"}, "[9]": {"tested_on": "human non-small cell lung cancer cells (lines A549, H460, and H1299)", "assay": "Flow cytometry of cell surface-bound FITC-modified targeting peptide, lung cancer cells", "format": "binding", "settings": "100 μg/mL FITC-modified peptide, 30 min, Ca2+ up to 2.75 mM, phosphate up to 1.61 mM", "procedure": "as §1"}, "[10]": {"settings": "systemic FA administration; cited from earlier work"}}, "note": "Entries after “also recorded” stand apart in the source; their conditions may differ."}
{"compound": "E24 TDSILRSYDWTY [targeting peptide]", "values": [{"measurement": "binding of targeting peptide to cell surface", "setting": "[1]", "value": "did not bind to normal epithelial cells; also recorded: weakly bound to normal cells"}, {"measurement": "calcification on the cell surface (EDX calcium and phosphorus)", "setting": "[2]", "value": "without significantly affecting normal lung epithelial cells; also recorded: less deposition of calcium and phosphorus elements"}, {"measurement": "identification of pulmonary nodules by imaging", "setting": "[3]", "value": "could not be clearly identified by imaging"}, {"measurement": "proliferative activity / killing effect", "setting": "[4]", "value": "selectively inhibited the proliferative activities of various lung cancer cells"}, {"measurement": "growth (and metastasis) of A549 lung cancer cells in vivo", "setting": "[5]", "value": "effectively inhibited the growth and metastasis of lung cancer"}, {"measurement": "growth (and metastasis) of A549 lung cancer cells in vivo", "setting": "[5]; listed as CiP targeting peptide", "value": "significantly inhibited the growth of A549 cells"}, {"measurement": "toxic effects on normal lung epithelial cells", "setting": "[6]", "value": "without significant toxic effects on normal lung epithelial cells"}, {"measurement": "identification of calcified lung cancer on ultrasound", "setting": "[7]", "value": "evident as high-density calcified foci on ultrasound; also recorded: could be clearly identified on ultrasound"}, {"measurement": "visualisation of calcified lung cancer on CT", "setting": "[7]", "value": "revealed a clear boundary on CT; also recorded: could be visualized on CT"}, {"measurement": "calcification on the cell surface (EDX calcium and phosphorus peaks)", "setting": "[8]", "value": "significantly increased calcification peaks"}, {"measurement": "calcification on the cell surface (EDX calcium and phosphorus peaks)", "setting": "[8]; listed as CiP", "value": "significantly increased"}, {"measurement": "binding of targeting peptide to cell surface", "setting": "[9]", "value": "selectively bound to the surface of lung cancer cells"}]}
{"compound": "E10TDSILRSYDWTY", "values": [{"measurement": "growth (and metastasis) of A549 lung cancer cells in vivo", "setting": "[5]", "value": "significantly inhibited the growth of A549 cells"}]}
{"compound": "E6TDSILRSYDWTY", "values": [{"measurement": "growth (and metastasis) of A549 lung cancer cells in vivo", "setting": "[5]", "value": "significantly inhibited the growth of A549 cells"}]}
{"compound": "E30TDSILRSYDWTY", "values": [{"measurement": "growth (and metastasis) of A549 lung cancer cells in vivo", "setting": "[5]", "value": "significantly inhibited the growth of A549 cells"}]}
{"compound": "E16TDSILRSYDWTY", "values": [{"measurement": "growth (and metastasis) of A549 lung cancer cells in vivo", "setting": "[5]", "value": "significantly inhibited the growth of A549 cells"}]}
{"compound": "Nc1nc2ncc(CNc3ccc(C(=O)N[C@@H](CCC(=O)O)C(=O)O)cc3)nc2c(=O)[nH]1", "note": "[FA, folic acid]", "values": [{"measurement": "body weight", "setting": "[10]", "value": "dramatically reduces body weight"}, {"measurement": "survival time", "setting": "[10]", "value": "severely decreases survival time"}, {"measurement": "tumor growth", "setting": "[10]", "value": "promotes tumor growth"}]}
